{"source": "paper PMC4716540", "about": "(British Journal of Cancer, 2015)", "key": {"[1]": {"tested_on": "patients with confirmed relapsed/refractory MM, CLL, or NHL", "assay": "Phase I safety and tolerability: adverse events, DLT, MTD, RP2D", "assay_type": "in vivo, human"}, "[2]": {"tested_on": "in vitro and in vivo models, including primary MM patient samples", "conditions": "ref Nakashima et al, 2010, Ishii et al, 2012; cited from earlier work"}}, "note": "“Also recorded” adds a separate entry of the source.", "data": [{"molecule": "CCc1c(O)cc(O)c(C(=O)c2ccc(OCCN3CCOCC3)c(OC)c2)c1CC(=O)N(CCOC)CCOC", "note": "[KW-2478]", "values": [{"measurement": "Abdominal pain (any AE)", "setting": "[1]; 99 mg m^–2 (n=4)", "result": "1 (25.0) No. of patients (%)"}, {"measurement": "Acne (any AE)", "setting": "[1]; 99 mg m^–2 (n=4)", "result": "0 No. of patients (%)"}, {"measurement": "Anaemia (any AE)", "setting": "[1]; 99 mg m^–2 (n=4)", "result": "0 No. of patients (%)"}, {"measurement": "Anorexia (any AE)", "setting": "[1]; 99 mg m^–2 (n=4)", "result": "0 No. of patients (%)"}, {"measurement": "Back pain (any AE)", "setting": "[1]; 99 mg m^–2 (n=4)", "result": "2 (50.0) No. of patients (%)"}, {"measurement": "Diarrhoea (any AE)", "setting": "[1]; 99 mg m^–2 (n=4)", "result": "2 (50.0) No. of patients (%)"}, {"measurement": "Dizziness (any AE)", "setting": "[1]; 99 mg m^–2 (n=4)", "result": "0 No. of patients (%)"}, {"measurement": "Fatigue (any AE)", "setting": "[1]; 99 mg m^–2 (n=4)", "result": "2 (50.0) No. of patients (%)"}, {"measurement": "Haemoglobin decreased (any AE)", "setting": "[1]; 99 mg m^–2 (n=4)", "result": "0 No. of patients (%)"}, {"measurement": "Hair disorder (any AE)", "setting": "[1]; 99 mg m^–2 (n=4)", "result": "0 No. of patients (%)"}, {"measurement": "Headache (any AE)", "setting": "[1]; 99 mg m^–2 (n=4)", "result": "2 (50.0) No. of patients (%)"}, {"measurement": "Herpes simplex infection (any AE)", "setting": "[1]; 99 mg m^–2 (n=4)", "result": "0 No. of patients (%)"}, {"measurement": "Hypertension (any AE)", "setting": "[1]; 99 mg m^–2 (n=4)", "result": "1 (25.0) No. of patients (%)"}, {"measurement": "LRTI (any AE)", "setting": "[1]; 99 mg m^–2 (n=4)", "result": "0 No. of patients (%)"}, {"measurement": "Musculoskeletal chest pain (any AE)", "setting": "[1]; 99 mg m^–2 (n=4)", "result": "1 (25.0) No. of patients (%)"}, {"measurement": "Nausea (any AE)", "setting": "[1]; 99 mg m^–2 (n=4)", "result": "1 (25.0) No. of patients (%)"}, {"measurement": "Oral herpes (any AE)", "setting": "[1]; 99 mg m^–2 (n=4)", "result": "1 (25.0) No. of patients (%)"}, {"measurement": "Rhinitis (any AE)", "setting": "[1]; 99 mg m^–2 (n=4)", "result": "0 No. of patients (%)"}, {"measurement": "Serious AE", "setting": "[1]; 99 mg m^–2 (n=4)", "result": "2 (50) No. of patients (%)"}, {"measurement": "Treatment-related AE", "setting": "[1]; 99 mg m^–2 (n=4)", "result": "3 (75.0) No. of patients (%)"}, {"measurement": "Vomiting (any AE)", "setting": "[1]; 99 mg m^–2 (n=4)", "result": "1 (25.0) No. of patients (%)"}, {"measurement": "AE (treatment-emergent)", "setting": "[1]; 132 mg m^–2 (n=6)", "result": "6 (100.0) No. of patients (%)"}, {"measurement": "Abdominal pain (any AE)", "setting": "[1]; 132 mg m^–2 (n=6)", "result": "2 (33.3) No. of patients (%)"}, {"measurement": "Acne (any AE)", "setting": "[1]; 132 mg m^–2 (n=6)", "result": "0 No. of patients (%)"}, {"measurement": "Anaemia (any AE)", "setting": "[1]; 132 mg m^–2 (n=6)", "result": "0 No. of patients (%)"}, {"measurement": "Anorexia (any AE)", "setting": "[1]; 132 mg m^–2 (n=6)", "result": "1 (16.7) No. of patients (%)"}, {"measurement": "Back pain (any AE)", "setting": "[1]; 132 mg m^–2 (n=6)", "result": "1 (16.7) No. of patients (%)"}, {"measurement": "Diarrhoea (any AE)", "setting": "[1]; 132 mg m^–2 (n=6)", "result": "3 (50.0) No. of patients (%)"}, {"measurement": "Dizziness (any AE)", "setting": "[1]; 132 mg m^–2 (n=6)", "result": "1 (16.7) No. of patients (%)"}, {"measurement": "Fatigue (any AE)", "setting": "[1]; 132 mg m^–2 (n=6)", "result": "1 (16.7) No. of patients (%)"}, {"measurement": "Haemoglobin decreased (any AE)", "setting": "[1]; 132 mg m^–2 (n=6)", "result": "2 (33.3) No. of patients (%)"}, {"measurement": "Hair disorder (any AE)", "setting": "[1]; 132 mg m^–2 (n=6)", "result": "0 No. of patients (%)"}, {"measurement": "Headache (any AE)", "setting": "[1]; 132 mg m^–2 (n=6)", "result": "4 (66.7) No. of patients (%)"}, {"measurement": "Herpes simplex infection (any AE)", "setting": "[1]; 132 mg m^–2 (n=6)", "result": "0 No. of patients (%)"}, {"measurement": "Hypertension (any AE)", "setting": "[1]; 132 mg m^–2 (n=6)", "result": "2 (33.3) No. of patients (%)"}, {"measurement": "LRTI (any AE)", "setting": "[1]; 132 mg m^–2 (n=6)", "result": "1 (16.7) No. of patients (%)"}, {"measurement": "Musculoskeletal chest pain (any AE)", "setting": "[1]; 132 mg m^–2 (n=6)", "result": "2 (33.3) No. of patients (%)"}, {"measurement": "Nausea (any AE)", "setting": "[1]; 132 mg m^–2 (n=6)", "result": "2 (33.3) No. of patients (%)"}, {"measurement": "Oral herpes (any AE)", "setting": "[1]; 132 mg m^–2 (n=6)", "result": "0 No. of patients (%)"}, {"measurement": "Rhinitis (any AE)", "setting": "[1]; 132 mg m^–2 (n=6)", "result": "4 (66.7) No. of patients (%)"}, {"measurement": "Serious AE", "setting": "[1]; 132 mg m^–2 (n=6)", "result": "3 (50.0) No. of patients (%)"}, {"measurement": "Treatment-related AE", "setting": "[1]; 132 mg m^–2 (n=6)", "result": "5 (83.3) No. of patients (%)"}, {"measurement": "Vomiting (any AE)", "setting": "[1]; 132 mg m^–2 (n=6)", "result": "3 (50.0) No. of patients (%)"}, {"measurement": "Number of treatment-related AEs per patient (average)", "setting": "[1]; 176 mg m^–2", "result": 9.2}, {"measurement": "AE (treatment-emergent)", "setting": "[1]; 176 mg m^–2 (n=7)", "result": "7 (100.0) No. of patients (%)"}, {"measurement": "Abdominal pain (any AE)", "setting": "[1]; 176 mg m^–2 (n=7)", "result": "0 No. of patients (%)"}, {"measurement": "Acne (any AE)", "setting": "[1]; 176 mg m^–2 (n=7)", "result": "0 No. of patients (%)"}, {"measurement": "Anaemia (any AE)", "setting": "[1]; 176 mg m^–2 (n=7)", "result": "3 (42.9) No. of patients (%)"}, {"measurement": "Anorexia (any AE)", "setting": "[1]; 176 mg m^–2 (n=7)", "result": "2 (28.6) No. of patients (%)"}, {"measurement": "Back pain (any AE)", "setting": "[1]; 176 mg m^–2 (n=7)", "result": "0 No. of patients (%)"}, {"measurement": "Diarrhoea (any AE)", "setting": "[1]; 176 mg m^–2 (n=7)", "result": "4 (57.1) No. of patients (%)"}, {"measurement": "Dizziness (any AE)", "setting": "[1]; 176 mg m^–2 (n=7)", "result": "0 No. of patients (%)"}, {"measurement": "Fatigue (any AE)", "setting": "[1]; 176 mg m^–2 (n=7)", "result": "4 (57.1) No. of patients (%)"}, {"measurement": "Haemoglobin decreased (any AE)", "setting": "[1]; 176 mg m^–2 (n=7)", "result": "0 No. of patients (%)"}, {"measurement": "Hair disorder (any AE)", "setting": "[1]; 176 mg m^–2 (n=7)", "result": "0 No. of patients (%)"}, {"measurement": "Headache (any AE)", "setting": "[1]; 176 mg m^–2 (n=7)", "result": "2 (28.6) No. of patients (%)"}, {"measurement": "Herpes simplex infection (any AE)", "setting": "[1]; 176 mg m^–2 (n=7)", "result": "1 (14.3) No. of patients (%)"}, {"measurement": "Hypertension (any AE)", "setting": "[1]; 176 mg m^–2 (n=7)", "result": "0 No. of patients (%)"}, {"measurement": "LRTI (any AE)", "setting": "[1]; 176 mg m^–2 (n=7)", "result": "2 (28.6) No. of patients (%)"}, {"measurement": "Musculoskeletal chest pain (any AE)", "setting": "[1]; 176 mg m^–2 (n=7)", "result": "1 (14.3) No. of patients (%)"}, {"measurement": "Nausea (any AE)", "setting": "[1]; 176 mg m^–2 (n=7)", "result": "0 No. of patients (%)"}, {"measurement": "Oral herpes (any AE)", "setting": "[1]; 176 mg m^–2 (n=7)", "result": "1 (14.3) No. of patients (%)"}, {"measurement": "Rhinitis (any AE)", "setting": "[1]; 176 mg m^–2 (n=7)", "result": "3 (42.9) No. of patients (%)"}, {"measurement": "Serious AE", "setting": "[1]; 176 mg m^–2 (n=7)", "result": "1 (14.3) No. of patients (%)"}, {"measurement": "Treatment-related AE", "setting": "[1]; 176 mg m^–2 (n=7)", "result": "5 (71.4) No. of patients (%)"}, {"measurement": "Vomiting (any AE)", "setting": "[1]; 176 mg m^–2 (n=7)", "result": "1 (14.3) No. of patients (%)"}, {"measurement": "Dose-limiting toxicities (DLTs)", "setting": "[1]; 14–176 mg m^–2 iv once daily days 1–5 of 14-day cycle, first cycle", "result": "no dose-limiting toxicities; also recorded: no DLTs"}, {"measurement": "Changes in haematological or biochemistry values, vital signs, body weight, ECG results", "setting": "[1]; all doses", "result": "no clinically meaningful changes"}, {"measurement": "Neurotoxicity and thrombocytopenia", "setting": "[1]; all doses", "result": "no apparent neurotoxicity nor significant thrombocytopenia"}, {"measurement": "Tolerability", "setting": "[1]; all doses", "result": "safe and well tolerated"}, {"measurement": "Treatment-related AEs ⩾grade 3", "setting": "[1]; all doses", "result": "rare"}, {"measurement": "Total number of treatment-related AEs reported", "setting": "[1]; all doses, all cycles", "result": 127}, {"measurement": "Total number of AEs reported", "setting": "[1]; all doses, all cycles, 27 patients", "result": 282}, {"measurement": "AE: diarrhoea", "setting": "[1]; all doses, all cycles, N=27", "result": 48.1, "unit": "%"}, {"measurement": "AE: fatigue", "setting": "[1]; all doses, all cycles, N=27", "result": 33.3, "unit": "%"}, {"measurement": "AE: headache", "setting": "[1]; all doses, all cycles, N=27", "result": 40.7, "unit": "%"}, {"measurement": "AE: rhinitis", "setting": "[1]; all doses, all cycles, N=27", "result": 40.7, "unit": "%"}, {"measurement": "Patients reporting AEs", "setting": "[1]; all doses, all cycles, N=27", "result": 100, "unit": "%"}, {"measurement": "Patients reporting treatment-related AEs", "setting": "[1]; all doses, all cycles, N=27", "result": 77.8, "unit": "%"}, {"measurement": "Mean blood pressure", "setting": "[1]; all patients during the study", "result": "no apparent dose-related increase"}, {"measurement": "Maximum-tolerated dose (MTD)", "setting": "[1]; doses up to 176 mg m^–2", "result": "not reached"}, {"measurement": "Grade 3/4 AEs considered possibly treatment-related", "setting": "[1]; lethargy (two episodes) and syncope, QT prolongation, neutrophil decrease", "result": "five events in three patients"}, {"measurement": "Recommended phase II dose (RP2D)", "setting": "[1]; once daily on days 1–5 every 2 weeks, highest dose tested", "result": 176, "unit": "mg m^–2"}, {"measurement": "Treatment-related AE: diarrhoea", "setting": "[1]; per patient, all doses, N=27", "result": 33.3, "unit": "%"}, {"measurement": "Treatment-related AE: dizziness", "setting": "[1]; per patient, all doses, N=27", "result": 7.4, "unit": "%"}, {"measurement": "Treatment-related AE: fatigue", "setting": "[1]; per patient, all doses, N=27", "result": 29.6, "unit": "%"}, {"measurement": "Treatment-related AE: headache", "setting": "[1]; per patient, all doses, N=27", "result": 25.9, "unit": "%"}, {"measurement": "Treatment-related AE: nausea", "setting": "[1]; per patient, all doses, N=27", "result": 14.8, "unit": "%"}, {"measurement": "Treatment-related AE: vomiting", "setting": "[1]; per patient, all doses, N=27", "result": 7.4, "unit": "%"}, {"measurement": "Deaths during the study, relation to study medication", "setting": "[1]; two patients, bronchopneumonia and lower respiratory tract infection", "result": "unrelated to study medication"}, {"measurement": "Antitumour activity", "setting": "[2]", "result": "potent antitumour activity"}]}]}
